Measured values published in patent US10251394B2, “Molecules having pesticidal utility, and intermediates, compositions, and processes, related thereto” (Dow AgroSciences LLC, priority 2016, dated 2019).

Experiments:
[1] = system: Beet Armyworm (Spodoptera exigua); test: Bioassay on Beet Armyworm (BAW), 128-well diet tray assay; format: in vivo; settings: Beet Armyworm, Table ABC, read-out: BAW rating
In short: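 Percent mortality, averaged over eight wells, was scored after five to seven days at 25° C under 14:10 light-dark. Each well's diet carried 50 μg/cm^2 of test molecule applied in acetone-water (90:10) and dried before one to five second-instar larvae were added.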

[2] = system: Cabbage Looper (Trichoplusia ni); test: Bioassay on Cabbage Looper (CL), 128-well diet tray assay; format: in vivo; settings: Cabbage Looper, Table ABC, read-out: CL rating
In short: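 Mortality after five to seven days at 25° C (14:10 photoperiod), averaged over eight wells per compound. Diet in each well carried 50 μg/cm^2 of dried test molecule and received one to five second-instar larvae.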

| SMILES | pest or weed control at 50 µg/cm2 [1] | pest or weed control at 50 µg/cm2 [2] |
| --- | --- | --- |
| C[C@@H](NC(=O)c1ccc(/C(F)=C/C(c2cc(Cl)cc(OC(F)(F)F)c2)C(F)(F)F)cc1C(F)(F)F)C(=O)NCC(F)(F)F (stereo partly drawn) [F181, 4-((Z)-3-(3-Chloro-5-(trifluoromethoxy)phenyl)-1,4,4,4-tetrafluorobut-1-en-1-yl)-N—((R)-1-oxo-1-((2,2,2-trifluoroethyl)amino)propan-2-yl)-2-(trifluoromethyl)benzamide] | 50 to 100% | 50 to 100% |
| C[C@@H](NC(=O)c1ccc(/C(F)=C/C(c2ccc(OC(F)(F)F)c(Cl)c2)C(F)(F)F)cc1C(F)(F)F)C(=O)NCC(F)(F)F (stereo partly drawn) [F182, 4-((Z)-3-(3-Chloro-4-(trifluoromethoxy)phenyl)-1,4,4,4-tetrafluorobut-1-en-1-yl)-N—((R)-1-oxo-1-((2,2,2-trifluoroethyl)amino)propan-2-yl)-2-(trifluoromethyl)benzamide] | 50 to 100% | 50 to 100% |
| C[C@@H](NC(=O)c1ccc(/C(F)=C/C(c2ccc(Cl)c(OC(F)(F)F)c2)C(F)(F)F)cc1C(F)(F)F)C(=O)NCC(F)(F)F (stereo partly drawn) [F183, 4-((Z)-3-(4-Chloro-3-(trifluoromethoxy)phenyl)-1,4,4,4-tetrafluorobut-1-en-1-yl)-N—((R)-1-oxo-1-((2,2,2-trifluoroethyl)amino)propan-2-yl)-2-(trifluoromethyl)benzamide] | 50 to 100% | 50 to 100% |
| C=Cc1cc(C(/C=C(\F)c2ccc(C(=O)N[C@H](C)C(=O)NCC(F)(F)F)c(C(F)(F)F)c2)C(F)(F)F)cc(C=C)c1Cl (stereo partly drawn) [F184, 4-((Z)-3-(4-Chloro-3,5-divinylphenyl)-1,4,4,4-tetrafluorobut-1-en-1-yl)-N—((R)-1-oxo-1-((2,2,2-trifluoroethyl)amino)propan-2-yl)-2-(trifluoromethyl)benzamide] | 50 to 100% | 50 to 100% |
| C[C@@H](NC(=O)c1ccc(/C(F)=C/C(c2cc(Cl)c(Cl)c(Br)c2)C(F)(F)F)cc1C(F)(F)F)C(=O)NCC(F)(F)F (stereo partly drawn) [F185, 4-((Z)-3-(3-Bromo-4,5-dichlorophenyl)-1,4,4,4-tetrafluorobut-1-en-1-yl)-N—((R)-1-oxo-1-((2,2,2-trifluoroethyl)amino)propan-2-yl)-2-(trifluoromethyl)benzamide] | 50 to 100% | 50 to 100% |
| C=Cc1cc(C(/C=C(\F)c2ccc(C(=O)N[C@H](C)C(=O)NCC(F)(F)F)c(C(F)(F)F)c2)C(F)(F)F)cc(Cl)c1Cl (stereo partly drawn) [F186, 4-((Z)-3-(3,4-dichloro-5-vinylphenyl)-1,4,4,4-tetrafluorobut-1-en-1-yl)-N—((R)-1-oxo-1-((2,2,2-trifluoroethyl)amino)propan-2-yl)-2-(trifluoromethyl)benzamide] | 50 to 100% | 50 to 100% |
| C=C(C)c1cc(C(/C=C(\F)c2ccc(C(=O)N[C@H](C)C(=O)NCC(F)(F)F)c(C(F)(F)F)c2)C(F)(F)F)cc(Cl)c1Cl (stereo partly drawn) [F187, 4-((Z)-3-(3,4-Dichloro-5-(prop-1-en-2-yl)phenyl)-1,4,4,4-tetrafluoro-but-1-en-1-yl)-N—((R)-1-oxo-1-((2,2,2-trifluoroethyl)amino)propan-2-yl)-2-(trifluoromethyl)benzamide] | 50 to 100% | 50 to 100% |
| C/C=C/c1cc(C(/C=C(\F)c2ccc(C(=O)N[C@H](C)C(=O)NCC(F)(F)F)c(C(F)(F)F)c2)C(F)(F)F)cc(Cl)c1Cl (stereo partly drawn) [F188, 4-((Z)-3-(3,4-Dichloro-5-((E)-prop-1-en-1-yl)phenyl)-1,4,4,4-tetrafluorobut-1-en-1-yl)-N—((R)-1-oxo-1-((2,2,2-trifluoroethyl)amino)propan-2-yl)-2-(trifluoromethyl)benzamide] | 50 to 100% | 50 to 100% |
| C#Cc1cc(C(/C=C(\F)c2ccc(C(=O)N[C@H](C)C(=O)NCC(F)(F)F)c(C(F)(F)F)c2)C(F)(F)F)cc(Cl)c1Cl (stereo partly drawn) [F189, 4-((Z)-3-(3,4-Dichloro-5-ethynylphenyl)-1,4,4,4-tetrafluorobut-1-en-1-yl)-N—((R)-1-oxo-1-((2,2,2-trifluoroethyl)amino)propan-2-yl)-2-(trifluoromethyl)benzamide] | 50 to 100% | 50 to 100% |
| CC#Cc1cc(C(/C=C(\F)c2ccc(C(=O)N[C@H](C)C(=O)NCC(F)(F)F)c(C(F)(F)F)c2)C(F)(F)F)cc(Cl)c1Cl (stereo partly drawn) [F190, 4-((Z)-3-(3,4-Dichloro-5-(prop-1-yn-1-yl)phenyl)-1,4,4,4-tetrafluorobut-1-en-1-yl)-N—((R)-1-oxo-1-((2,2,2-trifluoroethyl)amino)propan-2-yl)-2-(trifluoromethyl)benzamide] | 50 to 100% | 50 to 100% |
| C[C@@H](NC(=O)c1ccc(/C(F)=C/C(c2cc(Cl)c(Cl)c(C#CC(C)(C)C)c2)C(F)(F)F)cc1C(F)(F)F)C(=O)NCC(F)(F)F (stereo partly drawn) [F191, 4-((Z)-3-(3,4-Dichloro-5-(3,3-dimethylbut-1-yn-1-yl)phenyl)-1,4,4,4-tetrafluorobut-1-en-1-yl)-N—((R)-1-oxo-1-((2,2,2-trifluoroethyl)amino)propan-2-yl)-2-(trifluoromethyl)benzamide] | 50 to 100% | 50 to 100% |
| C[C@@H](NC(=O)c1ccc(/C(F)=C/C(c2cc(Cl)c(Cl)c(C#N)c2)C(F)(F)F)cc1C(F)(F)F)C(=O)NCC(F)(F)F (stereo partly drawn) [F192, 4-((Z)-3-(3,4-Dichloro-5-cyanophenyl)-1,4,4,4-tetrafluorobut-1-en-1-yl)-N—((R)-1-oxo-1-((2,2,2-trifluoroethyl)amino)propan-2-yl)-2-(trifluoromethyl)benzamide] | 50 to 100% | 50 to 100% |
| C[C@@H](NC(=O)c1ccc(/C(F)=C/C(c2cc(Cl)c(Cl)c(C(C)(F)F)c2)C(F)(F)F)cc1C(F)(F)F)C(=O)NCC(F)(F)F (stereo partly drawn) [F193, 4-((Z)-3-(3,4-Dichloro-5-(1,1-difluoroethyl)phenyl)-1,4,4,4-tetrafluorobut-1-en-1-yl)-N—((R)-1-oxo-1-((2,2,2-trifluoroethyl)amino)propan-2-yl)-2-(trifluoromethyl)benzamide] | 50 to 100% | 50 to 100% |
| C[C@@H](NC(=O)c1ccc(/C(F)=C/C(c2cc(Cl)c(Cl)c(CF)c2)C(F)(F)F)cc1C(F)(F)F)C(=O)NCC(F)(F)F (stereo partly drawn) [F194] | 50 to 100% | 50 to 100% |
| C[C@@H](NC(=O)c1ccc(/C(F)=C/C(c2cc(Cl)c(Cl)c(C(F)F)c2)C(F)(F)F)cc1C(F)(F)F)C(=O)NCC(F)(F)F (stereo partly drawn) [F195, 4-((Z)-3-(3,4-dichloro-5-(difluoromethyl)phenyl)-1,4,4,4-tetrafluorobut-1-en-1-yl)-N—((R)-1-oxo-1-((2,2,2-trifluoroethyl)amino)propan-2-yl)-2-(trifluoromethyl)benzamide] | 50 to 100% | 50 to 100% |
| C=Cc1cc(C(/C=C(\F)c2ccc(C(=O)N[C@@H]3CON(CC(F)(F)F)C3=O)c(C(F)(F)F)c2)C(F)(F)F)cc(Cl)c1Cl (stereo partly drawn) [F196, 4-((Z)-3-(3,4-Dichloro-5-vinylphenyl)-1,4,4,4-tetrafluorobut-1-en-1-yl)-N—((R)-3-oxo-2-(2,2,2-trifluoroethyl)isoxazolidin-4-yl)-2-(trifluoromethyl)benzamide] | 50 to 100% | 50 to 100% |
| O=C(N[C@@H]1CON(CC(F)(F)F)C1=O)c1ccc(/C(F)=C/C(c2cc(Cl)c(Cl)c(Br)c2)C(F)(F)F)cc1C(F)(F)F (stereo partly drawn) [F197, 4-((Z)-3-(3-Bromo-4,5-dichlorophenyl)-1,4,4,4-tetrafluorobut-1-en-1-yl)-N—((R)-3-oxo-2-(2,2,2-trifluoroethyl)isoxazolidin-4-yl)-2-(trifluoromethyl)benzamide] | 50 to 100% | 50 to 100% |
| O=C(N[C@@H]1CON(CC(F)(F)F)C1=O)c1ccc(/C(F)=C/C(c2cc(Cl)c(Cl)c(Cl)c2)C(F)(F)F)cc1Br (stereo partly drawn) [F198, 2-Bromo-N—((R)-3-oxo-2-(2,2,2-trifluoroethyl)isoxazolidin-4-yl)-4-((Z)-1,4,4,4-tetrafluoro-3-(3,4,5-trichlorophenyl)but-1-en-1-yl)benzamide] | 50 to 100% | 50 to 100% |
| O=C(N[C@@H]1CON(CC(F)(F)F)C1=O)c1ccc(/C(F)=C/C(c2cc(Cl)c(Cl)c(C(F)F)c2)C(F)(F)F)cc1C(F)(F)F (stereo partly drawn) [F199, 4-((Z)-3-(3,4-Dichloro-5-(difluoromethyl)phenyl)-1,4,4,4-tetrafluoro-but-1-enyl)-N—((R)-3-oxo-2-(2,2,2-trifluoroethyl)isoxazolidin-4-yl)-2-(trifluoromethyl)benzamide] | 50 to 100% | 50 to 100% |
| C=Cc1cc(/C(F)=C/C(c2cc(Cl)c(Cl)c(Cl)c2)C(F)(F)F)ccc1C(=O)NCC(=O)NCC(F)(F)F (stereo not drawn) [F200, (Z)—N-(2-Oxo-2-((2,2,2-trifluoroethyl)amino)ethyl)-4-(1,4,4,4-tetrafluoro-3-(3,4,5-trichlorophenyl)but-1-en-1-yl)-2-vinylbenzamide] | 50 to 100% | 50 to 100% |
| C=Cc1cc(/C(F)=C/C(c2cc(Cl)c(Cl)c(Cl)c2)C(F)(F)F)ccc1C(=O)N[C@H](C)C(=O)NCC(F)(F)F (stereo partly drawn) [F201, N—((R)-1-Oxo-1-((2,2,2-trifluoroethyl)amino)propan-2-yl)-4-((Z)-1,4,4,4-tetrafluoro-3-(3,4,5-trichlorophenyl)but-1-en-1-yl]-2-vinylbenzamide] | 50 to 100% | 50 to 100% |
